Consider seven molecules from patent publication US20160257930A1, “NEURONAL STEM CELL DIFFERENTIATION” (priority 2013, published 2016).

Entries after “also recorded” stand apart in the source; their conditions may differ. Read-outs that look alike come from different tables or passages of the source.

Type in all cases: cell-based, human
The test system of one test is hPSC-derived neurons. The experiment in a line: Fura-2 Ca2+ imaging. Particulars: 15 s; for intracellular Ca2+ response to glutamate receptor agonists: 100 micromolar agonist (NMDA plus 10 micromolar glycine). The procedure: A. Exemplar time-course of Fura 2 fluorescence recording of intracellular Ca^2+ concentration in a neuron derived from hPSCs differentiated using the protocol. At each arrow, the cell was exposed sequentially for 15 s to the following solutions: ECS with high potassium chloride concentration (50 mM, isoosmotically replacing NaCl) to evoke a cell depolarization; […] ECS with low sodium chloride concentration (15 mM final, isoosmotically replaced by sodium isethionate) with 300 microM GABA, ECS containing 100 micromolar NMDA plus 10 micromolar glycine; […] The ratiometric Ca^2+ sensitive dye Fura-2-AM (Molecular Probes, Eugene, Oreg., USA) was used for Ca^2+ imaging experiments. This dye was purchased as a dry powder in 50 μg aliquots. Before use, these aliquots were dissolved in 50 μl DMSO (Sigma) by vortex. They were then incubated at 37° C. for 1 h to ensure the dye was fully dissolved. 1 μl of the 1 mg/ml Fura-2-AM stock was added to 250 μl of normal cell growth media and mixed. Cells on glass coverslips were then added to the well and incubated for 30 min at 37° C. and 5% CO2 in a humidified tissue culture incubator. Both stocks and media containing the dye were stored out of direct light to prevent photo-bleaching of the dye. This incubation allowed for Fura-2-AM to be taken up by the cells, cleaved and turned into the active dye Fura-2. Fura-2-loaded cells were placed in a specialised perfusion chamber, designed to allow direct access of the microscope oil-immersion lens with the bottom of the coverslip, mounted upon an Olympus IX71 equipped with a Cairn monochromator-based fluorescence system (Cairn Instruments, Faversham, UK) and were continuously superfused with ECS. Imaging was performed at room temperature. Fura-2 was alternately excited using fluorescence light emitted from the monochromator at 340 and 380 nm. Images at 510 nm were acquired at 0.33 or 0.2 Hz by a slow-scan CCD camera (Kinetic Imaging Ltd, Nottingham, UK). Solutions, agonists and antagonists were locally applied to the cells using the gravity-driven rapid solution changer. Raw data, in the form of emission intensities at 510 nm, during alternate excitation at 340 or 380 nm, were recorded and stored. Following background subtraction, emission ratios (340/380) were calculated off-line using Microsoft Office Excel (Microsoft, Redmond, Wash., US). Where indicated, data were normalised to the first 10 frames to allow further analysis and for comparisons.

A further test has as its system iPS-derived neurons. Kind of test: Whole-cell patch-clamp, current clamp: spontaneous action potentials and resting Vm. An excerpt: Ag/AgCl electrodes for patch-clamp were produced by leaving pure silver wire in bleach overnight. An Ag/AgCl pellet (Clark Electromedical Instruments) connected to the patch-clamp headstage was used as the bath (reference) electrode. Thin-walled, filamented, borosilicate glass tubes (World-Precision Instruments, UK) were pulled using a two-stage pipette puller (PP-830, Narishige, Japan) to give patch pipettes with a measured tip resistance of 3-6 MΩ when filled with the internal pipette solution. These pipettes were used to establish whole-cell configuration of the patch clamp technique.
Whole-cell patch-clamp was performed at room temperature. Plated down cells grown on glass coverslips were transferred into a perfusion chamber mounted on the stage of an inverted microscope equipped with phase-contrast optics mounted inside a Faraday cage on an anti-vibration air table (Wentworth Laboratories Ltd., Oxford, UK). Continuous perfusion of the cells with ECS was maintained by a gravity-fed system using a 50 mL disposable syringe as a reservoir. Continuous perfusion was maintained at a rate of approximately 2-4 ml per minute. A gravity-fed rapid solution changer (RSC, RSC-200, Bio-Logic, France) was used to apply various solutions directly to the cells when required allowing for solution changes as fast as 20 ms. Waste solution was removed via vacuum suction through a flame-pulled glass tube connected to a waste Buchner flask with Tygon tubing.
Current-clamp was used to apply current protocols, generated using Axon Laboratory's pClamp 9 software to the patched cell. These were recorded on-line for further analysis using the pClamp software. Offline data review and analysis was performed using Axon Laboratory's Clampfit 9, Microsoft Office Excel and Prism6. Spontaneous action potentials (sAPs): Cells were held in current clamp with zero current injection for recording of resting membrane potentials (Vm) and observation of any spontaneous action potentials. Recordings were made using the ‘Gap free’ protocol immediately after whole-cell access to reduce the effect of the pipette ICS dialysing with the actual cytosolic solution and thus influencing the resting membrane potential. Recordings were made for approx. 60 s for a mean calculation of Vm and to allow for spontaneous action potentials to be recorded.
Data from the current step protocols were analysed in Clampfit and exported to Excel for further processing. The average Vm during a 60 s ‘Gap Free’ recording in current clamp was taken as the resting membrane potential. In cells displaying spontaneous activity, an estimation of the baseline was made from the trace.

For a further test, the system named is neural progenitors. The experiment in a line: Cyquant cell proliferation assay. Conditions: increasing concentrations; assayed after 3, 6, 9 and 12 days of culture. The procedure: Cell proliferation in cultures treated with cell cycle and Notch pathway inhibitors were measured using the Cyquant™ Direct Cell Proliferation kit (Invitrogen). Briefly, 1×10^4 neural progenitors were plated per well in black, clear-bottomed 96 well plates (Nunclon) pre-treated with matrigel and cultured in ADF medium supplemented with B27 and small molecule inhibitors such as PD0332991 or DAPT (FIG. 2). Plates were processed according to the manufacturer's instructions and fluorescence Cyquant measurements were taken from triplicate cells on days 3, 6, 9 and 12 of culture using a FLUOstar Optima™ plate reader (BMG Labtech) using FITC (480 nm excitation/535 nm emission) filters in a bottom read fluorescence mode. Each measurement was calibrated by using blank suppression dye as a blank to remove background fluorescence.

Test [1] concerns neural progenitor cultures. The experiment in a line: Ki67 immunocytochemistry of neural progenitor cultures. Conditions: for Ki67 immunoreactivity: 2 μM PD0332991 or 10 μM DAPT, 3 and 7 days after plating. The procedure: Cells grown on coverslips as described above were fixed with 4% paraformaldehyde at room temperature for 15 minutes. Cells were permeabilised (0.1% Triton X-100 in phosphate buffered saline) for 20 minutes at room temperature, then blocked in blocking solution (2% normal goat serum, 3% bovine serum albumin, 0.1% Triton X-100 in phosphate buffered saline for one hour. Cells were incubated with primary antibodies (rabbit anti-FOXG1, mouse anti-Sox2 (Abcam), mouse anti-ZOI (Abcam), mouse anti-Nestin (Abcam) anti-KI67 (Sigma) and anti-βIII-Tubulin (Sigma) diluted in the same buffer overnight at 4° C. Coverslips were then washed in 0.1% Triton X-100 in phosphate buffered saline 3 times for 5 minutes each and incubated with secondary antibodies (Goat anti-rabbit alexa 594 or Goat anti-mouse 488 secondary antibodies (1:400, Sigma), as appropriate diluted in blocking buffer. Coverslips were washed as above, mounted onto slides using Vectashield with DAPI and imaged using a Olympus BX61 fluorescence microscope.

[2] abbreviates: 1.8 mM Ca2+ or 300 μM GABA vs control medium (0.6 mM Ca2+), weeks 1 and 2.

Regarding `Cc1o[nH]c(=O)c1CC(N)C(=O)O` (stereo not drawn) [AMPA], the “intracellular Ca2+ response to glutamate receptor agonists” value in the test on hPSC-derived neurons was “all cells responded similarly”.
Consider SNX-482, for which the “ACM-evoked hyperpolarization (mean Vm)” value in the test with iPS-derived neurons is “abolished”.
Turning to `CC(=O)c1c(C)c2cnc(Nc3ccc(N4CCNCC4)cn3)nc2n(C2CCCC2)c1=O` [PD0332991], the “cell proliferation (relative Cyquant fluorescence, proportional to cell number)” value in the test on neural progenitors is “concentration-dependent growth arrest; also recorded: inhibit neural progenitor proliferation”. Further, in test [1], the Ki67 immunoreactivity entry was “complete loss of Ki67 immunopositive cells”.
Turning to `[Ca+2].[Cl-].[Cl-]` [Ca^2+, Calcium Chloride], in the test with iPS-derived neurons, the “mean resting Vm” value is “significant hyperpolarisation of mean resting Vm; also recorded: hyperpolarized the Vm” and the “proportion of cells generating spontaneous activity” value was “enhancement in the proportion of cells generating spontaneous activity; also recorded: increase in spontaneous activity; also recorded: partially mimic the effects of ACM”.
For `NCCCC(=O)O` [GABA, γ-aminobutyric acid], the “intracellular Ca2+ response to GABA in high chloride” value in the test with hPSC-derived neurons (300 microM GABA in ECS) was “all neurons responded to GABA in high chloride”. Besides, the “intracellular Ca2+ response to GABA in low chloride” value in the test with hPSC-derived neurons (300 microM GABA, low chloride ECS) was “few cells responded to GABA in low chloride”. Further, the “rescue of Vm” value in the test with iPS-derived neurons was “evoked a hyperpolarisation”. Also, in the test with iPS-derived neurons (setting [2]), the “mean resting Vm” value was “as effective as the increased extracellular Ca^2+” and the “proportion of cells generating spontaneous activity” value is recorded as “as effective as the increased extracellular Ca^2+; also recorded: partially mimic the effects of ACM”.
Consider `C[C@H](NC(=O)Cc1cc(F)cc(F)c1)C(=O)N[C@H](C(=O)OC(C)(C)C)c1ccccc1` [DAPT, N-[N-(3,5-Difluorophenacetyl)-L-alanyl]-S-phenylglycine t-butyl ester], for which the “cell proliferation (relative Cyquant fluorescence, proportional to cell number)” value in the test on neural progenitors is given as “reduces cell proliferation; also recorded: inhibit neural progenitor proliferation”. In addition, the Ki67 immunoreactivity entry in test [1] is on record as “more progressive loss of Ki67 immunostaining”. In addition, the “synchronisation of cell cycle exit and differentiation” value in test [1] (DAPT treatment alone) is “insufficient to synchronise cell cycle exit and differentiation”.
In the case of `CN[C@H](CC(=O)O)C(=O)O` [NDMA], the “intracellular Ca2+ response to glutamate receptor agonists” value with hPSC-derived neurons is on record as “all cells responded similarly”.
